In patent EP0428423A2, “Aryloxy alkyl benzenes, processes for their preparation and pharmaceutical compositions containing them” (LIPHA S.A., priority 1989, dated 1991):
Where two headings read alike, the source gives them in different places. Blank lines part the entries; values can stand above or below the compound they belong to.

What was measured:
RAT = experiment: Diuretic activity in the rat (hourly urine volume, sodium and potassium assay); type: in vivo; settings: for minimal effective dose: po, read-out: Dose minimale active; for Pouvoir diurétique en % / Rapport Na/K en %: PO, at the dose (minimal active dose)
Excerpt: (§1) d'urine sont déterminés toutes les heures. Le dosage de sodium et du potassium est effectué par spectrophotométrie.

SOURIS = experiment: Diuretic activity in the mouse (hourly urine volume, sodium and potassium assay); type: in vivo; settings: for minimal effective dose: Mus musculus, po, read-out: Dose minimale active; for Pouvoir diurétique en % / Rapport Na/K en %: PO, at the dose (minimal active dose)
Excerpt: as §1

[1] = test system: plasmas riches en plaquettes provenant de sang de rat; experiment: Platelet anti-aggregation in vitro, ADP-induced (Born aggregometer); type: cell-based
Protocol: Les études ont été réalisées sur des plasmas riches en plaquettes provenant de sang de rat, l'agrégation étant induite par addition d'acide Adénosine diphosphorique. Les courbes néphélométriques d'agrégation sont obtenues en utilisant un agrégomètre de type BORN, le plasma étant placé en incubation à 37° avec agitation continue de 1100 t/mn (cf. BORN G.V.R et CROSS J. - J. Physiol. 168 (1962) 178.

[2] = test system: rats mâles SHR (souche OKAMOTO); experiment: Antihypertensive action in the non-anaesthetised SHR rat (systolic blood pressure, sphygmomanometric method); type: in vivo; settings: 60 mg/kg PO, acute or chronic not given, 24 h after dosing
Excerpt: L'étude a été effectuée sur des lots de rats mâles SHR (souche OKAMOTO) âgés de 16 semaines. La pression artérielle systolique est déterminée par la méthode sphygmomanométrique (électro sphygmogra- phe NARCO biosystems type PE 300). Les mesures de tension sont réalisées 24 heures après administration d'un composé de formule générale I, la pression artérielle systolique est calculée à partir de la moyenne de 6 à 8 mesures.

COTRANSPORT Na-K = molecular target: T1, COTRANSPORT Na-K (Homo sapiens, UniProt P55011); experiment: Na-K cotransport of human erythrocytes; type: cell-based, ERYTHROCYTES HUMAINS; settings: human erythrocytes; for IC50: read-out: EFFET SUR LE COTRANSPORT Na-K IC 50
T1 construct: systèmes de transport du sodium et du potassium des érythrocytes humains; endogenous in cells; host or cells: human erythrocytes
T1 sequence (P55011 1-1212): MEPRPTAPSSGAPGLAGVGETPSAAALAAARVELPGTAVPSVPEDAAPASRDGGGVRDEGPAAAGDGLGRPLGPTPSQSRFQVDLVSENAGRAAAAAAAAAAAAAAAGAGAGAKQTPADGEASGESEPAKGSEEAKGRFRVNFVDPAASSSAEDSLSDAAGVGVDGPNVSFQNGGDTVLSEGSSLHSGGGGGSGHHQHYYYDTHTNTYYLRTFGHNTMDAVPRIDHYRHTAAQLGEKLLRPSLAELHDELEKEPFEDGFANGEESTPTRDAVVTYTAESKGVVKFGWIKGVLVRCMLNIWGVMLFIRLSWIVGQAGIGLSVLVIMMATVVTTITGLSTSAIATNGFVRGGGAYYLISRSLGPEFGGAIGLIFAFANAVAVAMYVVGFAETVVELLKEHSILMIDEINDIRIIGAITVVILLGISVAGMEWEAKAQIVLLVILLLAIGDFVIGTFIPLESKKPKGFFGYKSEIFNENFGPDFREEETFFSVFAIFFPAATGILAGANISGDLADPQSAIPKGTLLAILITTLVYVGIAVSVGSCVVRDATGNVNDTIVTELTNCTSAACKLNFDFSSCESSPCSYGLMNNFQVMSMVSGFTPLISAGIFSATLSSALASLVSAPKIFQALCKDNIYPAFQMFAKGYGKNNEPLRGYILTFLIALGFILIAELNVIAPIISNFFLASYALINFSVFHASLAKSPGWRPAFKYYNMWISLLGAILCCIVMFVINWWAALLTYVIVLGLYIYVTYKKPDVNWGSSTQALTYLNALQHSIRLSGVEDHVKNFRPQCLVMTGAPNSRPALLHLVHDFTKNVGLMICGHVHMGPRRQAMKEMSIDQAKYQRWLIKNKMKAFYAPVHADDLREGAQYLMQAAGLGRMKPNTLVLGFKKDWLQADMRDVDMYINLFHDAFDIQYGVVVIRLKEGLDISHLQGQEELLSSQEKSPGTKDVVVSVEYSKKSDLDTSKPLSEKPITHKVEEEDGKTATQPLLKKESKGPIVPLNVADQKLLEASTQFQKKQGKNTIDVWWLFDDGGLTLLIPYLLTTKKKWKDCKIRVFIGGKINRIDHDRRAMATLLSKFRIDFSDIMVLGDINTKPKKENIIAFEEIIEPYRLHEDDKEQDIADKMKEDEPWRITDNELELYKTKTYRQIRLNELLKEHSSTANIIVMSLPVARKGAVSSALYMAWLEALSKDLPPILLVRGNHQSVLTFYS
Excerpt: Cet effet a été étudié selon la méthodologie décrite par G. GARAY et coll. dans Naunyn-Schmidberg's Arch. Pharmakol. […] Pharm.

ECHANGEUR D'ANIONS = molecular target: T2, ECHANGEUR D'ANIONS (Homo sapiens, UniProt P02730); experiment: Anion exchanger of human erythrocytes; type: cell-based, ERYTHROCYTES HUMAINS; settings: for IC50: read-out: EFFET SUR L'ECHANGEUR D'ANIONS IC 50
T2 construct: systèmes de transport du sodium et du potassium des érythrocytes humains; endogenous in cells; host or cells: human erythrocytes
T2 sequence (P02730 1-911): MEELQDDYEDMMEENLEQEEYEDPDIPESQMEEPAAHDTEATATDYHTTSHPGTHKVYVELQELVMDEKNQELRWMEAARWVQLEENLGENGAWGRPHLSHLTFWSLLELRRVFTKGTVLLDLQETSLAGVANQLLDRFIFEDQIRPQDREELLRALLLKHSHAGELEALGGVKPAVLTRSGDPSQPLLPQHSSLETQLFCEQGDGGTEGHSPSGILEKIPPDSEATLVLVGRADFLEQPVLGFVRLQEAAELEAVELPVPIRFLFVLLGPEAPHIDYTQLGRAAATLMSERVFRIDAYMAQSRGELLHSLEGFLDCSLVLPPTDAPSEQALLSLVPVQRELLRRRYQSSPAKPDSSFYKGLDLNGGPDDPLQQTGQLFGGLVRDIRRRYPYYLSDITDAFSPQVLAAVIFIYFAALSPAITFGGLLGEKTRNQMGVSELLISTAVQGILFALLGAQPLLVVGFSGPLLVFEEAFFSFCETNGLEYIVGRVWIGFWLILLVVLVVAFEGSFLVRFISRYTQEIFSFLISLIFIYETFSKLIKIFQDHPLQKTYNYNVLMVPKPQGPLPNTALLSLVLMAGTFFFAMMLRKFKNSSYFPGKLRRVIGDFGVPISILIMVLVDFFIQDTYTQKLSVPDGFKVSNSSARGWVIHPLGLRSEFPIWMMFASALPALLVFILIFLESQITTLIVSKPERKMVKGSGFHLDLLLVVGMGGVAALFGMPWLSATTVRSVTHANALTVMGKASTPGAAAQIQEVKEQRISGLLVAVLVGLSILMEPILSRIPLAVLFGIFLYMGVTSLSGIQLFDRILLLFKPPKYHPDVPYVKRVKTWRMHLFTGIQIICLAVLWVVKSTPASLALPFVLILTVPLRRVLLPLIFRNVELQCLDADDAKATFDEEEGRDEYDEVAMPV
Excerpt: Cet effet a été étudié selon la méthodologie décrite par G. GARAY et coll. dans Naunyn-Schmidberg's Arch. Pharmakol. 334 (1986) 202-209 et dans Bioch. Pharm. 33 (1984) 2013-2020.

[3] = in vitro, aggregating agent ADP, rat platelet-rich plasma, 37°, M not defined in the text, mM printed only in the TICLOPIDINE line, read-out: M à 50

SMILES: Oc1cc2c(cc1CCOc1ccc(F)cc1)OCCO2 [ex 107]
minimal effective dose (RAT; R = RAT, diuretic activity): 25 mg/kg
minimal effective dose (SOURIS; S = SOURIS, diuretic activity): 100 mg/kg

IC50 [1, 3]: 0.7 mM
SMILES: Cc1ccc(CCOc2ccc(F)cc2)c(O)c1C [Ex 78]

SMILES: NS(=O)(=O)c1cc(C(=O)O)c(NCc2ccco2)cc1Cl [FUROSEMIDE, reference compound]
minimal effective dose (RAT; R = RAT, diuretic activity): 12 mg/kg
minimal effective dose (SOURIS; S = SOURIS, diuretic activity): 25 mg/kg
Variation de l'effet anti-hyper-tenseur 24 heures après produit [2]: FUROSEMIDE non actif HYDROCHLOROTHIAZIDE non actif

IC50 [1, 3]: 0.55 mM
SMILES: CC(C)c1ccc(O)c(CCOc2ccc(F)cc2)c1 [Ex 82]

IC50 [1, 3]: 0.6 mM
SMILES: O=C(Oc1ccccc1CCOc1ccc(F)cc1)c1cccnc1 [Ex 129]

IC50 (COTRANSPORT Na-K): 95 µM
IC50 (ECHANGEUR D'ANIONS): 200 µM
SMILES: Oc1c(CCOc2ccc(F)cc2)ccc2ccccc12 [ex 46]
Pouvoir diurétique en % (RAT; R = RAT): R : Inactif S : Inactif
Rapport Na/K en % (RAT; R = RAT): R : Inactif S : Inactif
Pouvoir diurétique en % (SOURIS; S = SOURIS): R : Inactif S : Inactif
Rapport Na/K en % (SOURIS; S = SOURIS): R : Inactif S : Inactif

IC50 [1, 3]: 0.75 mM
SMILES: Oc1ccc(OCCc2ccccc2O)cc1 [Ex 84]

SMILES: Oc1ccc2ccccc2c1CCOc1ccc(F)cc1 [ex 48]
minimal effective dose (RAT; R = RAT, diuretic activity): 25 mg/kg
minimal effective dose (SOURIS; S = SOURIS, diuretic activity): 100 mg/kg

SMILES: O=P(O)(O)Oc1ccccc1CCOc1ccc(F)cc1 [ex 134]
minimal effective dose (RAT; Rattus norvegicus): 6 mg/kg
minimal effective dose (SOURIS): 25 mg/kg
IC50 ([1]; Rattus norvegicus, Platelet, read-out: M à 50): 1.3 mM
IC50 ([1]; Rattus norvegicus, Platelet, read-out: V à 50): 1.5 mM
EFFET SUR LE COTRANSPORT Na-K IC 50 (COTRANSPORT Na-K): Non actif
EFFET SUR L'ECHANGEUR D'ANIONS IC 50 (ECHANGEUR D'ANIONS): Non actif

SMILES: NC(=O)c1ccc(O)c(CCOc2ccc(F)cc2)c1 [ex 163]
minimal effective dose (RAT; R = RAT, diuretic activity): 6 mg/kg
minimal effective dose (SOURIS; S = SOURIS, diuretic activity): 25 mg/kg

IC50 [1, 3]: 1.6 mM
SMILES: Oc1ccccc1CCOc1ccccc1 [Ex 12]

SMILES: CC(=O)NCCCCCC(=O)Oc1ccccc1CCOc1ccc(F)cc1 [ex 139]
minimal effective dose (RAT; R = RAT, diuretic activity): 25 mg/kg
minimal effective dose (SOURIS; S = SOURIS, diuretic activity): 25 mg/kg

IC50 [1, 3]: 0.6 mM
SMILES: Oc1ccccc1CCOc1cccc2ccccc12 [Ex 58]

SMILES: Cc1ccc(O)c(CCOc2ccc(F)cc2)c1 [Ex 54]
M à 50 ([1]; in vitro, aggregating agent ADP, rat platelet-rich plasma, 37°, M not defined in the text, mM printed only in the TICLOPIDINE line): inactif

IC50 [1, 3]: 0.3 mM
IC50 (COTRANSPORT Na-K): 95 µM
IC50 (ECHANGEUR D'ANIONS): 200 µM
SMILES: Oc1ccccc1CCOc1ccc2ccccc2c1 [ex 56]
Pouvoir diurétique en % (RAT; R = RAT): R : Inactif S : Inactif
Rapport Na/K en % (RAT; R = RAT): R : Inactif S : Inactif
Pouvoir diurétique en % (SOURIS; S = SOURIS): R : Inactif S : Inactif
Rapport Na/K en % (SOURIS; S = SOURIS): R : Inactif S : Inactif

IC50 [1, 3]: 1.55 mM
SMILES: CCCc1cccc(CCOc2ccc(F)cc2)c1O [Ex 86]
